What was measured:
Assay in all cases: Kinase profiling in a biochemical assay panel (mobility shift assays and ELISA), %-inhibition at 1 μM; selectivity entropy
[1] = molecular target: T1, panel of more than 300 wild-type and mutant kinases (313 kinase panel) (Homo sapiens, UniProt Q96PF2)
T1 sequence (Q96PF2 1-358): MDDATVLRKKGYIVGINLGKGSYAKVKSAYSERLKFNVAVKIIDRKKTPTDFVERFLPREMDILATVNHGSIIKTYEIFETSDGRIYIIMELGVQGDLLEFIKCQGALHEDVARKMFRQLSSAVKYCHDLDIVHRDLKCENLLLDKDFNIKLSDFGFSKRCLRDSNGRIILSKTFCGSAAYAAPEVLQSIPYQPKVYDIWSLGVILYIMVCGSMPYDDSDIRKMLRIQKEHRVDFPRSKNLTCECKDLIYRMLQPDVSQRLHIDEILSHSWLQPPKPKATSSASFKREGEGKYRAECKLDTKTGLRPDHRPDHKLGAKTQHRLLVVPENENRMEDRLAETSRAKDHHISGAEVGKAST

[2] = molecular target: T2, panel of more than 300 wild-type and mutant kinases (313 kinase panel) (Homo sapiens, UniProt P51817)
T2 sequence (P51817 1-358): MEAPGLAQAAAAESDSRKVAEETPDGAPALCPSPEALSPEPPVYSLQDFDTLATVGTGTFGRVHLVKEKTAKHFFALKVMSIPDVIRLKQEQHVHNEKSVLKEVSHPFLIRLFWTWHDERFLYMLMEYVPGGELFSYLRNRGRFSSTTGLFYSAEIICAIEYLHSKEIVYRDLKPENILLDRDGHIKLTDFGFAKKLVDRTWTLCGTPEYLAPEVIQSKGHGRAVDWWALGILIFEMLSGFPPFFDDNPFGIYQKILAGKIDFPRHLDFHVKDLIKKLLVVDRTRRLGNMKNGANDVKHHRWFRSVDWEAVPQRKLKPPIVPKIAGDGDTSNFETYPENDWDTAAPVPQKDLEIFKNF

[3] = molecular target: panel of more than 300 wild-type and mutant kinases (313 kinase panel) (Homo sapiens, UniProt Q9Y6R4)
panel of more than 300 wild-type and mutant kinases (313 kinase panel) (Homo sapiens, UniProt Q9Y6R4), sequence (Q9Y6R4 whole entry, change not shown): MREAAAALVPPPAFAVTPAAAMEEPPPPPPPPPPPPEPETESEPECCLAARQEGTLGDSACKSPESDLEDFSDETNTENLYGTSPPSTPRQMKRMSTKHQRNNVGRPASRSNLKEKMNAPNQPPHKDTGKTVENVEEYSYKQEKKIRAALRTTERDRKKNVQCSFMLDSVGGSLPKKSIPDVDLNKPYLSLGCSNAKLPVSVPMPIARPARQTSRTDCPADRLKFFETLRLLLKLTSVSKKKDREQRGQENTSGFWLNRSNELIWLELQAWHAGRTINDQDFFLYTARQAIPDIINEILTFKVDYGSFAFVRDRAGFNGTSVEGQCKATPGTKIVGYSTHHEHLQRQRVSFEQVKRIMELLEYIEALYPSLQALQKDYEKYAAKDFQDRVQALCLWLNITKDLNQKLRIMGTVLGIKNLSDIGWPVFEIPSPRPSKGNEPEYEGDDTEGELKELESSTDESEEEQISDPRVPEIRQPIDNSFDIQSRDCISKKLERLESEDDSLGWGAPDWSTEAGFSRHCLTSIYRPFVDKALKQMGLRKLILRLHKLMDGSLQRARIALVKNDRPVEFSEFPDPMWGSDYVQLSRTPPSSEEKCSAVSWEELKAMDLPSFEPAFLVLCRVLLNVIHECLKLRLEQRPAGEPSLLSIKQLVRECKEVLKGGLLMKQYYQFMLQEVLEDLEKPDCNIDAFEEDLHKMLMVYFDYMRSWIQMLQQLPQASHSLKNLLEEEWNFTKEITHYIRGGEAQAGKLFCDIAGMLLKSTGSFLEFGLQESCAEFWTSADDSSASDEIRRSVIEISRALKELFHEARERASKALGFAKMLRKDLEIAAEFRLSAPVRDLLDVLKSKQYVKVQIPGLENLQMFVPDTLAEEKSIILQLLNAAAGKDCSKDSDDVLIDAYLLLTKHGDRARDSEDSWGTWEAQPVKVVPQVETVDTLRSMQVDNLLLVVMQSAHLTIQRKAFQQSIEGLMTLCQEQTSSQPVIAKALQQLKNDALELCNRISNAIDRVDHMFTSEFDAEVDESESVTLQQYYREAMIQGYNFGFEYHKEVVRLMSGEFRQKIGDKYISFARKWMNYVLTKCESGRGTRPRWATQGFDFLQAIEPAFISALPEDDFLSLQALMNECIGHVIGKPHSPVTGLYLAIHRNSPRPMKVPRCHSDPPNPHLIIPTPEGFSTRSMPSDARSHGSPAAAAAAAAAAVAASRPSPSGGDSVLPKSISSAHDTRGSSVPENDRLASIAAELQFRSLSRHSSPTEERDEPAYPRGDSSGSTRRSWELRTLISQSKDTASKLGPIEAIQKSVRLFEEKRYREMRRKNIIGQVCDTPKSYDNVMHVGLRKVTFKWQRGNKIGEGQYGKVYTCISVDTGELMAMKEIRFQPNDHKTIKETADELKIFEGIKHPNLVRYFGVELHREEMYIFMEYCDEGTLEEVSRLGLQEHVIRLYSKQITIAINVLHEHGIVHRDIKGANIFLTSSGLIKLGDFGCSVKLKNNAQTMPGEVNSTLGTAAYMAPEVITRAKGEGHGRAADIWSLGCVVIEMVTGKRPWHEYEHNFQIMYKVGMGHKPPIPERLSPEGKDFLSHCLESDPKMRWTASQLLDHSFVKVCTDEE

[4] = molecular target: panel of more than 300 wild-type and mutant kinases (313 kinase panel) (Homo sapiens, UniProt P22694)
[5] = molecular target: T3, panel of more than 300 wild-type and mutant kinases (313 kinase panel) (Homo sapiens, UniProt P30530)
T3 sequence (P30530 26-894): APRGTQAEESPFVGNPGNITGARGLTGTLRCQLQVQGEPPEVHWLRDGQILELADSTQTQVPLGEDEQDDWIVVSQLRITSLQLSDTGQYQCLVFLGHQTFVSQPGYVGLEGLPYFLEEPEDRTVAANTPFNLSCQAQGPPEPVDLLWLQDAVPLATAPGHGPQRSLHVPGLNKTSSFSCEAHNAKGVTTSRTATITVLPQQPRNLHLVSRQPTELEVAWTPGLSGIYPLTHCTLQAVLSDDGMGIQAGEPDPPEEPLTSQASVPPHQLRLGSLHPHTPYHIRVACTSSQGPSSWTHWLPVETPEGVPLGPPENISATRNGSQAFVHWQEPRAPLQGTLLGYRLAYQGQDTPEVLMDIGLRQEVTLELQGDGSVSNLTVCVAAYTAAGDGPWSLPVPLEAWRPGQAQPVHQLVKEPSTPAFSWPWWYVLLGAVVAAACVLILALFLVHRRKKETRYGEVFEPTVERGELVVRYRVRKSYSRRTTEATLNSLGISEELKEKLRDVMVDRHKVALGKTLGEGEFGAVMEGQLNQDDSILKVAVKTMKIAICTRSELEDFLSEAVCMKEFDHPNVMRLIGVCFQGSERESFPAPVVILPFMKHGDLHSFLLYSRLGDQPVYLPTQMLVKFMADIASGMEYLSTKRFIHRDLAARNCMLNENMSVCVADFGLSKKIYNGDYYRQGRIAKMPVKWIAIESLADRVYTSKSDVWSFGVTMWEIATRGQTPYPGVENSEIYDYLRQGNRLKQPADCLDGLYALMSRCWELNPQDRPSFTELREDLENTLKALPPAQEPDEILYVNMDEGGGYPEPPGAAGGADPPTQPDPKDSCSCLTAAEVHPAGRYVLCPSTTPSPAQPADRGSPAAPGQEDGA

[6] = molecular target: T4, panel of more than 300 wild-type and mutant kinases (313 kinase panel) (Homo sapiens, UniProt Q16566)
T4 sequence (Q16566 1-473): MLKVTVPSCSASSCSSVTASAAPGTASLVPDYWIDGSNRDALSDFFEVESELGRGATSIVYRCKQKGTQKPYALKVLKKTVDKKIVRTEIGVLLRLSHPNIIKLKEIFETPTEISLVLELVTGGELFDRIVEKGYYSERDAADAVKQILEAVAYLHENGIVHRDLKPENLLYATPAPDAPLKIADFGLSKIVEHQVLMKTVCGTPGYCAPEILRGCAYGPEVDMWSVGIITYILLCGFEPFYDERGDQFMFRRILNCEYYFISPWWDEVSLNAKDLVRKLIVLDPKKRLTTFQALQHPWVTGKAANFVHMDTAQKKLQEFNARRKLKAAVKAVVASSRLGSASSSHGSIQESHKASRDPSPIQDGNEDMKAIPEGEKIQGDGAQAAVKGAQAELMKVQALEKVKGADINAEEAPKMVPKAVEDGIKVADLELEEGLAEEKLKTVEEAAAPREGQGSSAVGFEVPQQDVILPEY

[7] = molecular target: panel of more than 300 wild-type and mutant kinases (313 kinase panel) (Homo sapiens, UniProt P48730)
[8] = molecular target: panel of more than 300 wild-type and mutant kinases (313 kinase panel) (Homo sapiens, UniProt P22607, K650M)
panel of more than 300 wild-type and mutant kinases (313 kinase panel) (Homo sapiens, UniProt P22607, K650M), sequence (P22607 23-806 K650M): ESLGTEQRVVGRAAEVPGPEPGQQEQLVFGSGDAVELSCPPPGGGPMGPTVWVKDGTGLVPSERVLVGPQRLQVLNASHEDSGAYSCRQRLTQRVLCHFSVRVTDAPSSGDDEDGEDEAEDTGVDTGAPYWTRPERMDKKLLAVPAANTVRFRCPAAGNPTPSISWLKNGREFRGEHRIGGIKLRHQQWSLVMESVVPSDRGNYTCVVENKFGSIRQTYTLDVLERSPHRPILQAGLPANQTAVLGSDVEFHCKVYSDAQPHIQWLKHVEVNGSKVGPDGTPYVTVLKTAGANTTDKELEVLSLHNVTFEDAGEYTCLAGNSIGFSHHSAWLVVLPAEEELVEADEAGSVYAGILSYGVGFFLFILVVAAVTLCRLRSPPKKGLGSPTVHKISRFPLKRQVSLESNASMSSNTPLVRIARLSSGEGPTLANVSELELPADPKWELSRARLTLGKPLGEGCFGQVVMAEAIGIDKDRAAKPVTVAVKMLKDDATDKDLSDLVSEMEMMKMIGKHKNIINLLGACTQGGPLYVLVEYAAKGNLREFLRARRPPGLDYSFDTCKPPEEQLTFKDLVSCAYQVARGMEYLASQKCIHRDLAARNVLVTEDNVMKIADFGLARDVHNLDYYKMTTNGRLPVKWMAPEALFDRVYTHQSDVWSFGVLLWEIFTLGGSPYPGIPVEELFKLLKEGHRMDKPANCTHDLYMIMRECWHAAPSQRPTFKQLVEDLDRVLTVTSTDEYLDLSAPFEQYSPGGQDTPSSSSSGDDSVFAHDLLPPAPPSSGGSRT

[9] = kinase MAP3K4, compound at 1 μM
[10] = kinase FGFR3(K650M), compound at 1 μM

SMILES	%-inhibition of TSSK2 ([1]; kinase TSSK2, 1 μM) [%]	%-inhibition of PRKX ([2]; kinase PRKX, 1 μM) [%]	%-inhibition of MAP3K4 [3, 9] [%]	%-inhibition of PKACβ ([4]; kinase PKACβ, 1 μM) [%]	%-inhibition, AXL ([5]; kinase AXL, 1 μM compound) [%]	%-inhibition, CaMK4 ([6]; kinase CaMK4, 1 μM compound) [%]	%-inhibition, CK1δ ([7]; kinase CK1δ, 1 μM compound) [%]	%-inhibition of FGFR3(K650M) [8, 10] [%]	%-inhibition of PRKX ([2]; 1 µM) [%]	%-inhibition, AXL ([5]; 1 µM) [%]	%-inhibition, CaMK4 ([6]; 1 µM) [%]	%-inhibition of TSSK2 ([1]; 1 µM) [%]	%-inhibition, CK1δ ([7]; 1 µM) [%]	%-inhibition of MAP3K4 ([3]; 1 µM) [%]	%-inhibition of FGFR3(K650M) ([8]; 1 µM) [%]	%-inhibition of PKACβ ([4]; 1 µM) [%]
CN(C)C/C=C/C(=O)Nc1cc2c(Nc3ccc(F)c(Cl)c3)ncnc2cc1O[C@H]1CCOC1 [afatinib]	2															
COc1cc(Nc2c(C#N)cnc3cc(OCCCN4CCN(C)CC4)c(OC)cc23)c(Cl)cc1Cl [bosutinib]	-9	-4.31	96	52												
COc1cc2nccc(Oc3ccc(NC(=O)C4(C(=O)Nc5ccc(F)cc5)CC4)cc3)c2cc1OC [cabozantinib]	0.418	-2.42	-0.178	-4.25	100	-10	0.0601	10								
C[C@@H](Oc1cc(-c2cnn(C3CCNCC3)c2)cnc1N)c1c(Cl)ccc(F)c1Cl [crizotinib]	0.896	-7	5	-2.3			9	61								
CC(C)(C)c1nc(-c2cccc(NS(=O)(=O)c3c(F)cccc3F)c2F)c(-c2ccnc(N)n2)s1 [dabrafenib]	-1.73	-1.55	19		30	78	8.51	7								
Cc1nc(Nc2ncc(C(=O)Nc3c(C)cccc3Cl)s2)cc(N2CCN(CCO)CC2)n1 [dasatinib]				-1.68												
C#Cc1cccc(Nc2ncnc3cc(OCCOC)c(OCCOC)cc23)c1 [erlotinib]									2	18	2	2	-4	-1.55	87	-3
CO[C@H]1C[C@@H]2CC[C@@H](C)[C@@](O)(O2)C(=O)C(=O)N2CCCC[C@H]2C(=O)O[C@H]([C@H](C)C[C@@H]2CC[C@@H](OCCO)[C@H](OC)C2)CC(=O)[C@H](C)/C=C(\C)[C@@H](O)[C@@H](OC)C(=O)[C@H](C)C[C@H](C)/C=C/C=C/C=C/1C [everolimus]	-11	-4.49	-1.11	-6	-1.68	-11	-4.27	2.71								
O=S(=O)(c1cccc2cnccc12)N1CCCNCC1 [fasudil]	-0.28	86	-18		2.62	-5.66	-3.4	-0.618								
CS(=O)(=O)CCNCc1ccc(-c2ccc3ncnc(Nc4ccc(OCc5cccc(F)c5)c(Cl)c4)c3c2)o1 [lapatinib]	-7.54	0.493		-3				1.23		19	-4.44		-3.34	2		
Cc1cn(-c2cc(NC(=O)c3ccc(C)c(Nc4nccc(-c5cccnc5)n4)c3)cc(C(F)(F)F)c2)cn1 [nilotinib]	2.58	6	-18		-4.75	3.54	-17	-21								28
Cc1ccc(Nc2nccc(N(C)c3ccc4c(C)n(C)nc4c3)n2)cc1S(N)(=O)=O [pazopanib]	-2.46	-1.14	2.47	0.211	24	-1.08	1.13									
Cc1ccc(C(=O)Nc2ccc(CN3CCN(C)CC3)c(C(F)(F)F)c2)cc1C#Cc1cnc2cccnn12 [ponatinib]	-8	26	60		70	-1.51		100								
CNC(=O)c1cc(Oc2ccc(NC(=O)Nc3ccc(Cl)c(C(F)(F)F)c3)c(F)c2)ccn1 [regorafenib]	-11	-5.52	-9	-0.531	29	-0.0486	-6	101								
CCN(CC)CCNC(=O)c1c(C)[nH]c(/C=C2\C(=O)Nc3ccc(F)cc32)c1C [sunitinib]					98	26	32	97								
COc1cc2c(Nc3ccc(Br)cc3F)ncnc2cc1OCC1CCN(C)CC1 [vandetanib]	-9	-5.69	-10	-0.0886		-3	6									

— article PMC3961306, “Comparison of the Cancer Gene Targeting and Biochemical Selectivities of All Targeted Kinase Inhibitors Approved for Clinical Use” (PLoS ONE, 2014)
